{"source": "patent US8425894B2", "about": "“Use of oligomers of lactic acid in the treatment of gynaecological disorders” (priority 2007, dated 2013)", "key": {"[1]": {"assay": "Mucoadhesive properties of OMLA formulations (5 graded VAS scale)", "assay_type": "physicochemical", "settings": "0 = no, 4 = very pronounced mucoadhesive properties, fluid form", "description": "Mucoadhesiveness (or bioadhesiveness) is given according to a 5 graded VAS scale, where 0 denotes no mucoadhesive properties and 4 very pronounced mucoadhesive properties.\nChemical and preformulation experiments were carried out in order to determine mucoadhesiveness of OMLA in gel or semisolid forms (see table below). The mucoadhesiveness for the OMLA judged for fluid, gel, patch, and vagitoria. Muco(Bio)adhesiveness is given according to a 5 graded VAS scale, where 0 denotes no mucoadhesive properties and 4 very pronounced mucoadhesive properties."}, "[2]": {"assay": "Comparison of in vitro release from lactic acid and OMLA 30 through a dialysis membrane", "assay_type": "physicochemical", "description": "200 mg of LA or OMLA was placed in a dialysis bags. The bags were immersed in 50 ml of water (37° C.) and stirred in the same temperature for 48 hours. After 3, 6, 24 and 48 hours the acceptor liquid was removed and replaced with fresh water. The pH was measured at regular intervals. The liquid was titrated with 0.1 or 0.01 M KOH to measure how much LA equivalents are released. Then an excess of KOH was added and after 24 hours the solution was titrated with 0.1 or 0.01 HCl. […] The results are presented in FIG. 4A. pH was measured outside of the dialysis bags each hour between 1 to 10 and periodically up to 48 hours (FIG. 4B)."}}}
{"smiles": "CC(O)C(=O)O", "note": "(stereo not drawn) [LA, lactic acid]", "values": [{"measurement": "Mucoadhesiveness, Fluid", "setting": "[1]", "result": 0}, {"measurement": "release from the dialysis bag", "setting": "[2]; 200 mg in dialysis bag, 50 ml water, 37° C.", "result": "immediately"}, {"measurement": "ability to maintain constant acidic pH outside the dialysis bag", "setting": "[2]; 50 ml water 37° C., replaced after 3, 6, 24, 48 h", "result": "not able to maintain acidic pH constant"}]}
